Data: ChEMBL document CHEMBL1201862, “PubChem BioAssay data set” (2004)
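Briefly, cells in 96-well plates were exposed to five compound concentrations for 48 h, and endpoints were estimated by linear interpolation. The concentration for 50% growth inhibition is given as GI50.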 Activity calls are given as the source filed them. Rule as the data show it: active = GI50 up to about 1.1 µM and inactive = higher.

Assays:
Assay in all cases: NCI tumour cell line growth inhibition, 48 h
786-0 = test system: 786-0
A549 = test system: A549
ACHN = test system: ACHN
BT-549 = test system: BT-549
CAKI-1 = test system: CAKI-1
CCRF-CEM = test system: CCRF-CEM
COLO 205 = test system: COLO 205
DU-145 = test system: DU-145
EKVX = test system: EKVX
HCC 2998 = test system: HCC 2998
HCT-116 = test system: HCT-116
HCT-15 = test system: HCT-15
HL-60 = test system: HL-60
HOP-62 = test system: HOP-62
HOP-92 = test system: HOP-92
HT-29 = test system: HT-29
Hs-578T = test system: Hs-578T
IGROV-1 = test system: IGROV-1
KM12 = test system: KM12
LOX IMVI = test system: LOX IMVI
M14 = test system: M14
MCF7 = test system: MCF7
MDA-MB-231 = test system: MDA-MB-231
MDA-MB-435 = test system: MDA-MB-435
MDA-N = test system: MDA-N
MOLT-4 = test system: MOLT-4
Malme-3M = test system: Malme-3M
NCI-H226 = test system: NCI-H226
NCI-H23 = test system: NCI-H23
NCI-H460 = test system: NCI-H460
NCI-H522 = test system: NCI-H522
NCI/ADR-RES = test system: NCI/ADR-RES
OVCAR-3 = test system: OVCAR-3
OVCAR-4 = test system: OVCAR-4
OVCAR-5 = test system: OVCAR-5
OVCAR-8 = test system: OVCAR-8
PC-3 = test system: PC-3
RPMI-8226 = test system: RPMI-8226
SF-268 = test system: SF-268
SF-295 = test system: SF-295
SF-539 = test system: SF-539
SK-MEL-28 = test system: SK-MEL-28
SK-MEL-2 = test system: SK-MEL-2
SK-MEL-5 = test system: SK-MEL-5
SK-OV-3 = test system: SK-OV-3
SN12C = test system: SN12C
SNB-19 = test system: SNB-19
SNB-75 = test system: SNB-75
SW-620 = test system: SW-620
T47D = test system: T47D
TK-10 = test system: TK-10
U-251 = test system: U-251
UACC-257 = test system: UACC-257
UACC-62 = test system: UACC-62
UO-31 = test system: UO-31
K562 = test system: K562
RXF 393 = test system: RXF 393
SR = test system: SR

With `Clc1ccc(/C=N/c2ccc(Oc3ccc(Cl)cc3)c(Cl)c2)cc1` as the compound, how does the GI50 (786-0) read?
The GI50 was 17.9 µM (inactive).

What about the GI50 (A549) of the same compound?
Its GI50 is 22.3 µM (inactive).

What about the GI50 (ACHN) of the same compound?
The GI50 was 34.1 µM (inactive).

And the GI50 (BT-549)?
Its GI50 is 21.7 µM (inactive).

And the GI50 (CAKI-1)?
Its GI50 is 6.41 µM (inactive).

What about the GI50 (CCRF-CEM) of the same compound?
Its GI50 is 15.8 µM (inactive).

What about the GI50 (COLO 205) of the same compound?
The GI50 was 21.6 µM (inactive).

And the GI50 (DU-145)?
Its GI50 is 30.8 µM (inactive).

What about the GI50 (EKVX) of the same compound?
Its GI50 is 27.8 µM (inactive).

And the GI50 (HCC 2998)?
Its GI50 is 21.5 µM (inactive).

What about the GI50 (HCT-116) of the same compound?
The GI50 was 17.9 µM (inactive).

And the GI50 (HCT-15)?
The GI50 was 21.8 µM.

What about the GI50 (HL-60) of the same compound?
The GI50 was 23.3 µM (inactive).

What about the GI50 (HOP-62) of the same compound?
Its GI50 is 19.4 µM (inactive).

And the GI50 (HOP-92)?
Its GI50 is 19.4 µM (inactive).

What about the GI50 (HT-29) of the same compound?
The GI50 was 23.7 µM (inactive).

And the GI50 (Hs-578T)?
Its GI50 is 21.5 µM (inactive).

What about the GI50 (IGROV-1) of the same compound?
Its GI50 is 38.5 µM (inactive).

And the GI50 (KM12)?
The GI50 was 24.8 µM (inactive).

What about the GI50 (LOX IMVI) of the same compound?
The GI50 was 18.8 µM (inactive).

And the GI50 (M14)?
The GI50 was 21.1 µM (inactive).

What about the GI50 (MCF7) of the same compound?
The GI50 was 30.8 µM (inactive).

And the GI50 (MDA-MB-231)?
Its GI50 is 22 µM (inactive).

What about the GI50 (MDA-MB-435) of the same compound?
The GI50 was 29.7 µM (inactive).

What about the GI50 (MDA-N) of the same compound?
The GI50 was 19.1 µM (inactive).

And the GI50 (MOLT-4)?
Its GI50 is 25.5 µM (inactive).

What about the GI50 (Malme-3M) of the same compound?
The GI50 was 20.2 µM (inactive).

What about the GI50 (NCI-H226) of the same compound?
Its GI50 is 35.3 µM (inactive).

And the GI50 (NCI-H23)?
Its GI50 is 23.5 µM (inactive).

And the GI50 (NCI-H460)?
The GI50 was 21.5 µM (inactive).

And the GI50 (NCI-H522)?
Its GI50 is 14.3 µM (inactive).

What about the GI50 (NCI/ADR-RES) of the same compound?
Its GI50 is 20.8 µM (inactive).

What about the GI50 (OVCAR-3) of the same compound?
Its GI50 is 16.9 µM (inactive).

What about the GI50 (OVCAR-4) of the same compound?
Its GI50 is 25.3 µM (inactive).

And the GI50 (OVCAR-5)?
The GI50 was > 100 µM (inactive).

What about the GI50 (OVCAR-8) of the same compound?
The GI50 was 29.4 µM (inactive).

And the GI50 (PC-3)?
Its GI50 is 22.1 µM (inactive).

What about the GI50 (RPMI-8226) of the same compound?
Its GI50 is 28.4 µM (inactive).

And the GI50 (SF-268)?
Its GI50 is 17.5 µM (inactive).

And the GI50 (SF-295)?
The GI50 was 18.8 µM (inactive).

And the GI50 (SF-539)?
The GI50 was 17.2 µM (inactive).

And the GI50 (SK-MEL-28)?
Its GI50 is 23.6 µM (inactive).

What about the GI50 (SK-MEL-2) of the same compound?
The GI50 was 22.1 µM (inactive).

What about the GI50 (SK-MEL-5) of the same compound?
The GI50 was 22.3 µM (inactive).

And the GI50 (SK-OV-3)?
Its GI50 is 27 µM (inactive).

And the GI50 (SN12C)?
The GI50 was 19.5 µM (inactive).

What about the GI50 (SNB-19) of the same compound?
Its GI50 is 23 µM (inactive).

And the GI50 (SNB-75)?
Its GI50 is 22.5 µM (inactive).

And the GI50 (SW-620)?
The GI50 was 31 µM (inactive).

What about the GI50 (T47D) of the same compound?
The GI50 was 19.5 µM (inactive).

And the GI50 (TK-10)?
Its GI50 is 50.7 µM (inactive).

What about the GI50 (U-251) of the same compound?
Its GI50 is 23.9 µM (inactive).

What about the GI50 (UACC-257) of the same compound?
Its GI50 is 30.9 µM (inactive).

What about the GI50 (UACC-62) of the same compound?
Its GI50 is 19.8 µM (inactive).

And the GI50 (UO-31)?
The GI50 was 11.5 µM (inactive).

`COC(CN(C)C(=O)C(C)NC(=O)c1ccccc1)OC` (stereo not given) was tested. Which GI50 (786-0) did it give?
Its GI50 is > 100 µM (inactive).

What about the GI50 (A549) of the same compound?
The GI50 was > 100 µM (inactive).

And the GI50 (ACHN)?
Its GI50 is > 100 µM (inactive).

And the GI50 (BT-549)?
The GI50 was > 100 µM (inactive).

And the GI50 (CAKI-1)?
Its GI50 is > 100 µM (inactive).

What about the GI50 (CCRF-CEM) of the same compound?
The GI50 was > 100 µM (inactive).

What about the GI50 (COLO 205) of the same compound?
Its GI50 is > 100 µM (inactive).

What about the GI50 (DU-145) of the same compound?
Its GI50 is > 100 µM (inactive).

And the GI50 (EKVX)?
The GI50 was > 100 µM (inactive).

And the GI50 (HCT-116)?
The GI50 was > 100 µM (inactive).

What about the GI50 (HCT-15) of the same compound?
Its GI50 is > 100 µM.

What about the GI50 (HOP-92) of the same compound?
Its GI50 is > 100 µM (inactive).

What about the GI50 (HT-29) of the same compound?
The GI50 was > 100 µM (inactive).

What about the GI50 (Hs-578T) of the same compound?
Its GI50 is > 100 µM (inactive).

And the GI50 (IGROV-1)?
Its GI50 is > 100 µM (inactive).

And the GI50 (K562)?
The GI50 was > 100 µM (inactive).

What about the GI50 (KM12) of the same compound?
Its GI50 is > 100 µM (inactive).

What about the GI50 (M14) of the same compound?
The GI50 was > 100 µM (inactive).

What about the GI50 (MCF7) of the same compound?
The GI50 was > 100 µM (inactive).

What about the GI50 (MDA-MB-231) of the same compound?
Its GI50 is > 100 µM (inactive).

What about the GI50 (MDA-MB-435) of the same compound?
Its GI50 is > 100 µM (inactive).

And the GI50 (MDA-N)?
The GI50 was > 100 µM (inactive).

What about the GI50 (MOLT-4) of the same compound?
Its GI50 is > 100 µM (inactive).

What about the GI50 (Malme-3M) of the same compound?
The GI50 was > 100 µM (inactive).

What about the GI50 (NCI-H226) of the same compound?
Its GI50 is > 100 µM (inactive).

And the GI50 (NCI-H23)?
The GI50 was > 100 µM (inactive).

And the GI50 (NCI-H460)?
The GI50 was > 100 µM (inactive).

And the GI50 (NCI-H522)?
The GI50 was > 100 µM (inactive).

What about the GI50 (NCI/ADR-RES) of the same compound?
Its GI50 is > 100 µM (inactive).

And the GI50 (OVCAR-4)?
Its GI50 is > 100 µM (inactive).

What about the GI50 (OVCAR-5) of the same compound?
The GI50 was > 100 µM (inactive).

What about the GI50 (OVCAR-8) of the same compound?
Its GI50 is > 100 µM (inactive).

And the GI50 (PC-3)?
The GI50 was > 100 µM (inactive).

What about the GI50 (RPMI-8226) of the same compound?
Its GI50 is > 100 µM (inactive).

And the GI50 (RXF 393)?
The GI50 was > 100 µM (inactive).

What about the GI50 (SF-268) of the same compound?
Its GI50 is > 100 µM (inactive).

What about the GI50 (SF-295) of the same compound?
The GI50 was > 100 µM (inactive).

What about the GI50 (SF-539) of the same compound?
Its GI50 is > 100 µM (inactive).

What about the GI50 (SK-MEL-2) of the same compound?
The GI50 was > 100 µM (inactive).

And the GI50 (SK-MEL-5)?
The GI50 was > 100 µM (inactive).

And the GI50 (SK-OV-3)?
Its GI50 is > 100 µM (inactive).

What about the GI50 (SN12C) of the same compound?
The GI50 was > 100 µM (inactive).

And the GI50 (SNB-75)?
Its GI50 is > 100 µM (inactive).

What about the GI50 (SR) of the same compound?
The GI50 was > 100 µM (inactive).

What about the GI50 (SW-620) of the same compound?
The GI50 was > 100 µM (inactive).

What about the GI50 (T47D) of the same compound?
The GI50 was > 100 µM (inactive).

What about the GI50 (TK-10) of the same compound?
The GI50 was > 100 µM (inactive).

And the GI50 (U-251)?
Its GI50 is > 100 µM (inactive).

What about the GI50 (UACC-257) of the same compound?
Its GI50 is > 100 µM (inactive).

And the GI50 (UACC-62)?
The GI50 was > 100 µM (inactive).
